Source: US4595696A, “Polyene compounds useful in the treatment of allergic responses” (USV Pharmaceutical Corp., priority 1985, dated 1986)
pIC50: −log10 of the molar value. Like-named read-outs stand apart in the source and are kept apart here.

Tests used:
Phospholipase A2 (PLA2) = molecular target: T1, Phospholipase A2 (PLA2) (Rattus norvegicus, UniProt P14423); assay: In Vitro Assay for Inhibitors of Phospholipase A2 (PLA2), rat platelets (Protocol II); type: biochemical
T1 construct: The PLA2 employed in this screen is obtained by aggregation of purified rat platelets; from tissue; host or cells: purified rat platelets, enzyme obtained by aggregation
T1 sequence (P14423 22-146): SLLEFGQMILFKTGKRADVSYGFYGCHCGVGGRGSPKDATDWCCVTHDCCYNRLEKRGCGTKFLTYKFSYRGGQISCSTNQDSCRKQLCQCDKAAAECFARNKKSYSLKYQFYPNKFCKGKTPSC
From the text: An assay has been developed to test the ability of the invented compounds on the activity of the phospholipases. The following protocol describes a means for testing the inhibitory effect of these compounds on Phospholipase A2 (PLA2).
In Vitro Assay for Inhibitors of Phospholipase A2 Assayed at pH 7.0 (PLA2)
The PLA2 employed in this screen is obtained by aggregation of purified rat platelets. In the enzyme assay phosphatidylcholine having ^14 C-labeled palmitate residues at R1 and R2 is employed as substrate. PLA2 acts by cleaving the R2 fatty acid ester bond yielding free fatty acid and lysophosphatidylcholine as follows: [drawing 15]
Following completion of the reaction, the assay medium is acidified and extracted with hexane, which takes up unreacted substrate and free fatty acid product. The hexane extract is passed over a short silica column which retains 99% of the phosphatidylcholine. The ^14 C-labeled palmitic acid is not retained (90% recovery in eluate) and is collected directly in scintillation counting vials. The released palmitic acid is conveniently quantitated by liquid scintillation spectrometry.
The compounds were tested at 100 μM in a buffer containing 0.3 mM unlabeled phosphatidylcholine (PC), 20-30,000 cpm of ^14 C(CPC), […], 1 mM CaCl2 and 50 mM tris-HCl adjusted to pH 7.2 with 1N NaOH. […] The temperature of the buffer was maintained at a temperature of 37° C. The reaction was initiated by addition of the enzyme and it was terminated 30 minutes later by the addition of […] of 1N HCl.
Following acidification, the samples were extracted with 2 ml of 2-propanol and 2 ml of hexane, vortexed and allowed to stand until the phases separated. Free fatty acids (FFA) and some unreacted substrate were taken up in the isopropanol-saturated hexane. The hexane phase of the extraction mixture was transferred to a short silica gell column which retained reacted PC but not the FFA. The column effluent was collected directly in scintillation vials. The columns were washed once with an additional 2 ml of hexane. The radio labeled FFA were quantitated by liquid scintillation spectrometry.

5-Lipoxygenase = molecular target: T2, 5-Lipoxygenase (Rattus norvegicus, UniProt P12527); assay: Inhibition of 5-Lipoxygenase, rat PMN (Protocol 1); type: cell-based; details: rat neutrophils, 3 minutes at 30° C., 5-HETE formation; for pIC50: [14C]-arachidonic acid and Calcium Ionophore A23187, read-out: Lox, Rat PMN (I50); for Inhibition of 5-Lipoxygenase, Lox, Rat PMN (given as %): concentration not given
T2 construct: endogenous in cells; host or cells: rat neutrophils (PMN)
T2 sequence (P12527 1-673): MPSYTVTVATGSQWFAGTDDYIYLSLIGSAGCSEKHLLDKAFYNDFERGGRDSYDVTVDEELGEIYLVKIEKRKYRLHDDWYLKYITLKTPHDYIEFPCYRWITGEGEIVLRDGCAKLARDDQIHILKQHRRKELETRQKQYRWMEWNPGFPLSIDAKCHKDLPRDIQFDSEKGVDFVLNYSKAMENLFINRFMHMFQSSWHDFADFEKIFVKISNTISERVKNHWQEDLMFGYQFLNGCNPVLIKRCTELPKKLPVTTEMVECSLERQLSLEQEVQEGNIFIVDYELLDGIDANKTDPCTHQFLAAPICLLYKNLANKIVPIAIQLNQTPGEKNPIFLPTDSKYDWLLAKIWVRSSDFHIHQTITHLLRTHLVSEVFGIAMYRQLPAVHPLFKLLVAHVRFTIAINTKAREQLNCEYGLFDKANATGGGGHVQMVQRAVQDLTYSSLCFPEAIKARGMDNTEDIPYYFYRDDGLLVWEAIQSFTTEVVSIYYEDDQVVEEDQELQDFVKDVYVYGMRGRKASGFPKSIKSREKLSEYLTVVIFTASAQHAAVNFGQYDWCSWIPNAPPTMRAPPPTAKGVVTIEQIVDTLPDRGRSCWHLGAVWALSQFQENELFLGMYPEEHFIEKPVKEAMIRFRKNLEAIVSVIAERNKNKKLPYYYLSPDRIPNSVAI
Procedure: Protocol 1 describes an assay to detect inhibitors of the lipoxygenase pathway. Such inhibitors are believed to be capable of modulating the biosynthesis of the leukotrienes, a property believed to be useful in treating asthma and inflammatory disease states. A suspension of rat neutrophils in buffer is incubated for 3 minutes at 30° C. with [^14 C]-arachidonic acid (AA) and Calcium Ionophore A23187. Citric acid (2M) is used to quench the reaction. […] The organic layer is washed with dilute acid and an aliquot is transferred to glass tubes and dried. […] The 5-HETE spots are visulaized with iodine, cut out and placed in scintillation vials for counting. After adjusting for the extraction efficiency, the amount (pmole) of [^14 C]-5-HETE in each of the tubes is quantitated. The net pmoles of 5-HETE are obtained by subtracting the pmoles of 5-HETE in the tubes containing buffer alone (blank) from the pmoles of 5-HETE in the tubes containing buffer and cells (control).

[1] = rat platelets PLA2, phosphatidylcholine substrate, pH 7.2, 37° C., 30 minutes, read-out: PHOSPHOLIPASE A2 INHIBITION Activity (I50)

Compound | pIC50 (Phospholipase A2 (PLA2); [1]) | pIC50 (5-Lipoxygenase) | further results
CC(=O)Nc1ccc(SC(=O)/C=C(C)/C=C/C=C(C)/C=C/C2=C(C)CCCC2(C)C)cc1 [Example 3, Retinoic Acid 4-Acetamidophenyl Thioester] | 4.47 | 5.64 | –
CC(=O)Nc1ccc(OC(=O)/C=C/C=C(C)/C=C/C=C(C)/C=C/C2=C(C)CCCC2(C)C)cc1 [Example 4, 4-Acetamidophenyl 5,9-dimethyl-11-(2,6,6-trimethyl-1-cyclohexen-1-yl)-2,4,6,8,10-undecapentaenoate] | – | – | pIC50 (Phospholipase A2 (PLA2)): 4.77
CC1=C(/C=C/C(C)=C/C=C/C(C)=C/C(=O)O)C(C)(C)CCC1 [all trans retinoic acid, reference compound] | – | 4.05 | inhibition at 100 µM (Phospholipase A2 (PLA2); at 100 μM, rat platelets PLA2, pH 7.2, 37° C., 30 minutes): 32%
CCNC(=O)/C=C(C)/C=C/C=C(C)/C=C/c1c(C)cc(OC)c(C)c1C [Ro 11 - 1430, reference compound] | – | – | Inhibition of 5-Lipoxygenase, Lox, Rat PMN (given as %) (5-Lipoxygenase): -11 ± 19%
CCOC(=O)/C=C(C)/C=C/C=C(C)/C=C/c1c(C)cc(OC)c(C)c1C [Ro 10 - 9359, reference compound] | – | – | Inhibition of 5-Lipoxygenase, Lox, Rat PMN (given as %) (5-Lipoxygenase): 10 ± 17%
CC(=O)Nc1cccc(OC(=O)/C=C(C)/C=C/C=C(C)/C=C/C2=C(C)CCCC2(C)C)c1 [Example 2, 3-Acetamidophenyl Retinoate] | 4.32 | 4.26 | –
CC(=O)Nc1ccc(OC(=O)/C=C(C)/C=C/C=C(C)/C=C/C2=C(C)CCCC2(C)C)cc1 [Example 1, 4-Acetamidophenyl Retinoate] | 4.25 | 4.25 | –
